Assay results from ChEMBL document CHEMBL1145390, “Synthesis and preliminary biological characterization of new semisynthetic derivatives of ramoplanin” (J Med Chem, 2007).
Converted amounts (≈) assume the structure as drawn.

How the values were obtained:
[1] = Toxicity assessed as hemolysis in erythrocytes at 100 mg/L; assay type: cell-based, Erythrocyte; settings: human, read-out: Activity
[2] = test system: Enterococcus faecalis; assay: Antibacterial activity against vancomycin A-resistant Enterococcus faecalis after 24 hrs by broth microdilution method; assay type: functional; settings: read-out: MIC
[3] = Toxicity assessed as hemolysis in erythrocytes at 800 mg/L; assay type: cell-based, Erythrocyte; settings: human, read-out: Activity
[4] = test system: Staphylococcus aureus; assay: Antibacterial activity against Staphylococcus aureus Smith in presence of 30% bovine serum after 24 hrs by broth microdilution method; assay type: functional
[5] = test system: Staphylococcus aureus; assay: Antibacterial activity against methicillin-resistant and vancomycin-intermediate resistant Staphylococcus aureus clinical isolate after 24 hrs by broth microdilution method; assay type: functional; settings: read-out: MIC
[6] = test system: Staphylococcus aureus; assay: Antibacterial activity against vancomycin-intermediate resistant Staphylococcus aureus clinical isolate in presence of 30% bovine serum after 24 hrs by broth microdilution method; assay type: functional
[7] = test system: Enterococcus faecium; assay: Antibacterial activity against vancomycin A-resistant Enterococcus faecium clinical isolate in presence of 30% bovine serum after 24 hrs by broth microdilution method; assay type: functional
[8] = test system: Staphylococcus aureus; assay: Antibacterial activity against vancomycin-intermediate resistant Staphylococcus aureus clinical isolate after 24 hrs by broth microdilution method; assay type: functional
[9] = test system: Staphylococcus aureus; assay: Antibacterial activity against Staphylococcus aureus Smith after 24 hrs by broth microdilution method; assay type: functional; settings: read-out: MIC
[10] = test system: Streptococcus pyogenes; assay: Antibacterial activity against Streptococcus pyogenes C203 after 24 hrs by broth microdilution method; assay type: functional; settings: C203, 24 h, read-out: MIC
[11] = test system: Escherichia coli; assay: Antibacterial activity against Escherichia coli SKF-12140 after 24 hrs by broth microdilution method; assay type: functional; settings: read-out: MIC
[12] = Toxicity assessed as hemolysis in erythrocytes at 200 mg/L; assay type: cell-based, Erythrocyte; settings: human, read-out: Activity
[13] = test system: Staphylococcus aureus; assay: Antibacterial activity against methicillin-resistant Staphylococcus aureus clinical isolate after 24 hrs by broth microdilution method; assay type: functional; settings: read-out: MIC
[14] = test system: Candida albicans; assay: Antifungal activity against Candida albicans SKF-2270 after 24 hrs by broth microdilution method; assay type: functional; settings: read-out: MIC
[15] = test system: Enterococcus faecalis; assay: Antibacterial activity against vancomycin-resistant Enterococcus faecalis in presence of 30% bovine serum after 24 hrs by broth microdilution method; assay type: functional
[16] = test system: Enterococcus faecium; assay: Antibacterial activity against Enterococcus faecium after 24 hrs by broth microdilution method; assay type: functional; settings: read-out: MIC
[17] = test system: Enterococcus faecalis; assay: Antibacterial activity against Enterococcus faecalis after 24 hrs by broth microdilution method; assay type: functional; settings: read-out: MIC
[18] = Toxicity assessed as hemolysis in erythrocytes at 400 mg/L; assay type: cell-based, Erythrocyte; settings: human, read-out: Activity
[19] = test system: Enterococcus faecium; assay: Antibacterial activity against vancomycin A-resistant Enterococcus faecium clinical isolate after 24 hrs by broth microdilution method; assay type: functional; settings: read-out: MIC
[20] = Toxicity assessed as hemolysis in erythrocytes at 1600 mg/L; assay type: cell-based, Erythrocyte; settings: human, read-out: Activity

SMILES | hemolysis at 100 mg/L [1] [%] | MIC [2] [mg/L] | hemolysis at 800 mg/L [3] [%] | MIC [4] [mg/L] | MIC [5] [mg/L] | MIC [6] [mg/L] | MIC [7] [mg/L] | MIC [8] [mg/L] | MIC [9] [mg/L] | MIC [10] [mg/L] | MIC [11] [mg/L] | hemolysis at 200 mg/L [12] [%] | MIC [13] [mg/L] | MIC [14] [mg/L] | MIC [15] [mg/L] | MIC [16] [mg/L] | MIC [17] [mg/L] | hemolysis at 400 mg/L [18] [%] | MIC [19] [mg/L] | hemolysis at 1600 mg/L [20] [%]
CC/C=C/C=C\CC(=O)N[C@@H](CC(N)=O)C(=O)NC[C@@H]1C(=O)N[C@H](c2ccc(O)cc2)C(=O)N[C@H](CCCN)C(=O)N[C@H](C(C)C)C(=O)N[C@@H](c2ccc(O)cc2)C(=O)N[C@H](c2ccc(O)cc2)C(=O)N[C@@H]([C@@H](C)O)C(=O)N[C@@H](Cc2ccccc2)C(=O)N[C@H](CCCN)C(=O)N[C@@H](c2ccc(O[C@H]3O[C@H](CO)[C@@H](O)[C@H](O)[C@@H]3O[C@H]3O[C@H](CO)[C@@H](O)[C@H](O)[C@@H]3O)cc2)C(=O)N[C@H]([C@@H](C)O)C(=O)N[C@@H](c2ccc(O)cc2)C(=O)NCC(=O)N[C@@H](CC(C)C)C(=O)N[C@H](C)C(=O)N[C@@H](c2ccc(O)c(Cl)c2)C(=O)O[C@@H]1C(N)=O | 38 | 0.25 (≈ 0.098 µM) | 96 | 0.5 | 2 (≈ 0.784 µM) | 2 | 1 | 1 (≈ 0.392 µM) | 0.25 (≈ 0.098 µM) | ≤ 0.125 | > 128 | 45 | 0.25 (≈ 0.098 µM) | > 128 | 0.5 | 0.5 (≈ 0.196 µM) | 0.5 (≈ 0.196 µM) | 51 | 0.25 (≈ 0.098 µM) | 
Cc1ccccc1C(=O)N[C@@H](CC(N)=O)C(=O)NC[C@@H]1C(=O)N[C@H](c2ccc(O)cc2)C(=O)N[C@H](CCCN)C(=O)N[C@H](C(C)C)C(=O)N[C@@H](c2ccc(O)cc2)C(=O)N[C@H](c2ccc(O)cc2)C(=O)N[C@@H]([C@@H](C)O)C(=O)N[C@@H](Cc2ccccc2)C(=O)N[C@H](CCCN)C(=O)N[C@@H](c2ccc(O[C@H]3O[C@H](CO)[C@@H](O)[C@H](O)[C@@H]3O[C@H]3O[C@H](CO)[C@@H](O)[C@H](O)[C@@H]3O)cc2)C(=O)N[C@H]([C@@H](C)O)C(=O)N[C@@H](c2ccc(O)cc2)C(=O)NCC(=O)N[C@@H](CC(C)C)C(=O)N[C@H](C)C(=O)N[C@@H](c2ccc(O)c(Cl)c2)C(=O)O[C@@H]1C(N)=O | 2 | 2 (≈ 0.785 µM) | 94 | 1 | 8 (≈ 3.14 µM) | 4 | ≤ 0.125 | 8 (≈ 3.14 µM) | 1 (≈ 0.392 µM) | ≤ 0.125 | > 128 | 17 | 1 (≈ 0.392 µM) | > 128 | 2 | 2 (≈ 0.785 µM) | 2 (≈ 0.785 µM) | 83 | 4 (≈ 1.57 µM) | 93
CCCCC(CC)C(=O)N[C@@H](CC(N)=O)C(=O)NC[C@@H]1C(=O)N[C@H](c2ccc(O)cc2)C(=O)N[C@H](CCCN)C(=O)N[C@H](C(C)C)C(=O)N[C@@H](c2ccc(O)cc2)C(=O)N[C@H](c2ccc(O)cc2)C(=O)N[C@@H]([C@@H](C)O)C(=O)N[C@@H](Cc2ccccc2)C(=O)N[C@H](CCCN)C(=O)N[C@@H](c2ccc(O[C@H]3O[C@H](CO)[C@@H](O)[C@H](O)[C@@H]3O[C@H]3O[C@H](CO)[C@@H](O)[C@H](O)[C@@H]3O)cc2)C(=O)N[C@H]([C@@H](C)O)C(=O)N[C@@H](c2ccc(O)cc2)C(=O)NCC(=O)N[C@@H](CC(C)C)C(=O)N[C@H](C)C(=O)N[C@@H](c2ccc(O)c(Cl)c2)C(=O)O[C@@H]1C(N)=O (some centres undefined) | 0 | 0.25 (≈ 0.0978 µM) | 73 | 0.5 | 2 (≈ 0.782 µM) | 2 | 1 | 1 (≈ 0.391 µM) | 0.25 (≈ 0.0978 µM) | ≤ 0.125 | > 128 | 4 | 0.25 (≈ 0.0978 µM) | > 128 | 1 | 0.5 (≈ 0.196 µM) | 0.5 (≈ 0.196 µM) | 8 | 0.5 (≈ 0.196 µM) | 83
Cc1ccccc1CC(=O)N[C@@H](CC(N)=O)C(=O)NC[C@@H]1C(=O)N[C@H](c2ccc(O)cc2)C(=O)N[C@H](CCCN)C(=O)N[C@H](C(C)C)C(=O)N[C@@H](c2ccc(O)cc2)C(=O)N[C@H](c2ccc(O)cc2)C(=O)N[C@@H]([C@@H](C)O)C(=O)N[C@@H](Cc2ccccc2)C(=O)N[C@H](CCCN)C(=O)N[C@@H](c2ccc(O[C@H]3O[C@H](CO)[C@@H](O)[C@H](O)[C@@H]3O[C@H]3O[C@H](CO)[C@@H](O)[C@H](O)[C@@H]3O)cc2)C(=O)N[C@H]([C@@H](C)O)C(=O)N[C@@H](c2ccc(O)cc2)C(=O)NCC(=O)N[C@@H](CC(C)C)C(=O)N[C@H](C)C(=O)N[C@@H](c2ccc(O)c(Cl)c2)C(=O)O[C@@H]1C(N)=O | 1 | 0.25 (≈ 0.0976 µM) | 2 | 0.25 | 2 (≈ 0.781 µM) | 1 | 1 | 1 (≈ 0.39 µM) | ≤ 0.125 | ≤ 0.125 | > 128 | 1 | ≤ 0.125 | > 128 | 0.5 | 0.5 (≈ 0.195 µM) | 0.5 (≈ 0.195 µM) | 1 | 0.5 (≈ 0.195 µM) | 5
